Test system: MV-4-11 cells
Test: Gene expression microarray analysis (Affymetrix PrimeView) and GSEA
Assay type: cell-based, human
Set-up: RFU PODN (11730768_x_at) / Fold change /veh PODN (11730768_x_at) / RFU LINC00158 (11744669_a_at) / Fold change /veh LINC00158 (11744669_a_at) / RFU DUSP10 (11751237_a_at) / Fold change /veh DUSP10 (11751237_a_at) / RFU ID3 (11757404_x_at) / Fold change /veh ID3 (11757404_x_at) / RFU PLEKHG5 (11737974_s_at) / Fold change /veh PLEKHG5 (11737974_s_at) / RFU LRRC4B (11730491_at) / Fold change /veh LRRC4B (11730491_at) / RFU GIMAP4 (11747438_a_at) / Fold change /veh GIMAP4 (11747438_a_at) / RFU KRT8 (11758183_x_at) / Fold change /veh KRT8 (11758183_x_at) / RFU CNN1 (11734310_a_at) / Fold change /veh CNN1 (11734310_a_at) / RFU VPS37D (11726825_at) / Fold change /veh VPS37D (11726825_at) / RFU C10orf10 (11716522_x_at) / Fold change /veh C10orf10 (11716522_x_at) / RFU KIR2DL2 /// KIR2DL4 /// KIR2DL5A /// KIR2DL5B /// KIR2DS1 /// KIR2DS2 /// KIR2DS3 /// KIR2DS4 /// KIR3DL3 /// KIR3DL3 /// KIR3DS1 (11738374_at) / Fold change /veh KIR2DL2 /// KIR2DL4 /// KIR2DL5A /// KIR2DL5B /// KIR2DS1 /// KIR2DS2 /// KIR2DS3 /// KIR2DS4 /// KIR3DL3 /// KIR3DL3 /// KIR3DS1 (11738374_at) / RFU C1QL1 (11718748_at) / Fold change /veh C1QL1 (11718748_at) / RFU TMPRSS4 (11747572_a_at) / Fold change /veh TMPRSS4 (11747572_a_at) / RFU HAMP (11756126_x_at) / Fold change /veh HAMP (11756126_x_at) / RFU RNFT2 (11725882_a_at) / Fold change /veh RNFT2 (11725882_a_at) / RFU NR4A2 (11747474_a_at) / Fold change /veh NR4A2 (11747474_a_at) / RFU ABCC12 (11746883_a_at) / Fold change /veh ABCC12 (11746883_a_at) / RFU TMEM136 (11760407_x_at) / Fold change /veh TMEM136 (11760407_x_at) / RFU CLDN22 /// WWC2 (11732394_at) / Fold change /veh CLDN22 /// WWC2 (11732394_at) / RFU HLA-DPB1 (11760878_x_at) / Fold change /veh HLA-DPB1 (11760878_x_at) / RFU SPINT1 (11716480_a_at) / Fold change /veh SPINT1 (11716480_a_at) / RFU GAP43 (11754022_s_at) / Fold change /veh GAP43 (11754022_s_at) / RFU A4GNT (11735810_at) / Fold change /veh A4GNT (11735810_at) / RFU PRB3 (11715151_x_at) / Fold change /veh PRB3 (11715151_x_at) / RFU TUBB4B (11761932_at) / Fold change /veh TUBB4B (11761932_at) / RFU CAPN14 (11732068_a_at) / Fold change /veh CAPN14 (11732068_a_at) / RFU TMCC2 (11721928_a_at) / Fold change /veh TMCC2 (11721928_a_at) / RFU IRGQ (11745062_a_at) / Fold change /veh IRGQ (11745062_a_at) / RFU FAM174B (11720279_a_at) / Fold change /veh FAM174B (11720279_a_at) / RFU TMPRSS4 (11748680_a_at) / Fold change /veh TMPRSS4 (11748680_a_at) / RFU FAM212B (11763350_a_at) / Fold change /veh FAM212B (11763350_a_at) / RFU PLEKHG5 (11743358_a_at) / Fold change /veh PLEKHG5 (11743358_a_at) / RFU ZSCAN30 (11745921_a_at) / Fold change /veh ZSCAN30 (11745921_a_at) / RFU CMKLR1 (11741424_a_at) / Fold change /veh CMKLR1 (11741424_a_at) / RFU LOC101060620 /// MAPK8IP1 (11723275_at) / Fold change /veh LOC101060620 /// MAPK8IP1 (11723275_at) / RFU SPTSSB (11747773_x_at) / Fold change /veh SPTSSB (11747773_x_at) / RFU PRSS12 (11739890_at) / Fold change /veh PRSS12 (11739890_at) / RFU BIN1 (11741810_x_at) / Fold change /veh BIN1 (11741810_x_at) / RFU WNT11 (11732464_a_at) / Fold change /veh WNT11 (11732464_a_at) / RFU C10orf10 (11716521_a_at) / Fold change /veh C10orf10 (11716521_a_at) / RFU C5orf56 (11738089_at) / Fold change /veh C5orf56 (11738089_at) / RFU CYB561 (11721691_x_at) / Fold change /veh CYB561 (11721691_x_at) / RFU ANKRD19P (11752326_a_at) / Fold change /veh ANKRD19P (11752326_a_at) / RFU OR2T12 /// OR2T33 /// OR2T8 (11738714_s_at) / Fold change /veh OR2T12 /// OR2T33 /// OR2T8 (11738714_s_at) / RFU VCAN (11748164_a_at) / Fold change /veh VCAN (11748164_a_at) / RFU JSRP1 (11732532_at) / Fold change /veh JSRP1 (11732532_at) / RFU KRTAP10-11 (11738290_x_at) / Fold change /veh KRTAP10-11 (11738290_x_at) / RFU MYO3A (11730013_a_at) / Fold change /veh MYO3A (11730013_a_at) / RFU EBF3 (11725865_a_at) / Fold change /veh EBF3 (11725865_a_at) / RFU CAMK2N1 (11719241_x_at) / Fold change /veh CAMK2N1 (11719241_x_at) / RFU C5orf56 (11738088_a_at) / Fold change /veh C5orf56 (11738088_a_at) / RFU OLFML3 (11715873_a_at) / Fold change /veh OLFML3 (11715873_a_at) / RFU LOC100653217 /// NTM (11731650_a_at) / Fold change /veh LOC100653217 /// NTM (11731650_a_at) / RFU MAPK11 (11762145_a_at) / Fold change /veh MAPK11 (11762145_a_at) / RFU FIZ1 (11724087_x_at) / Fold change /veh FIZ1 (11724087_x_at) / RFU OASL (11726364_x_at) / Fold change /veh OASL (11726364_x_at) / RFU SOX15 (11748057_x_at) / Fold change /veh SOX15 (11748057_x_at) / RFU CD79A (11719716_a_at) / Fold change /veh CD79A (11719716_a_at) / RFU HIST1H1D (11736915_at) / Fold change /veh HIST1H1D (11736915_at) / RFU CASKIN2 (11723855_a_at) / Fold change /veh CASKIN2 (11723855_a_at) / RFU LOC730098 (11760151_x_at) / Fold change /veh LOC730098 (11760151_x_at) / RFU OR4N2 (11742367_at) / Fold change /veh OR4N2 (11742367_at) / RFU PRRT2 (11749266_a_at) / Fold change /veh PRRT2 (11749266_a_at) / RFU SNX32 (11753110_a_at) / Fold change /veh SNX32 (11753110_a_at) / RFU CDHR5 (11726645_a_at) / Fold change /veh CDHR5 (11726645_a_at) / RFU RCAN1 (11760418_a_at) / Fold change /veh RCAN1 (11760418_a_at) / RFU FAM167A (11723789_a_at) / Fold change /veh FAM167A (11723789_a_at) / RFU FAM26E (11764081_at) / Fold change /veh FAM26E (11764081_at) / RFU ISYNA1 (11749810_s_at) / Fold change /veh ISYNA1 (11749810_s_at) / RFU ACY1 (11761880_at) / Fold change /veh ACY1 (11761880_at) / RFU 11764098_at / Fold change /veh 11764098_at / RFU SAMD14 (11745864_x_at) / Fold change /veh SAMD14 (11745864_x_at) / RFU NPB (11741838_a_at) / Fold change /veh NPB (11741838_a_at) / RFU TMPRSS6 (11731388_a_at) / Fold change /veh TMPRSS6 (11731388_a_at) / RFU KRTAP10-2 (11738614_at) / Fold change /veh KRTAP10-2 (11738614_at) / RFU ARHGAP8 /// PRR5-ARHGAP8 (11727945_x_at) / Fold change /veh ARHGAP8 /// PRR5-ARHGAP8 (11727945_x_at) / RFU KRTAP5-7 /// NADSYN1 (11734609_at) / Fold change /veh KRTAP5-7 /// NADSYN1 (11734609_at) / RFU RASL12 (11751679_a_at) / Fold change /veh RASL12 (11751679_a_at) / RFU CDKN2B (11736163_a_at) / Fold change /veh CDKN2B (11736163_a_at) / RFU PRF1 (11729649_at) / Fold change /veh PRF1 (11729649_at) / RFU, ZNF638 /// ZNF638-IT1 / Fold change vs veh, ZNF638 /// ZNF638-IT1 / RFU, PANK3 / Fold change vs veh, PANK3 / RFU, SH3YL1 / Fold change vs veh, SH3YL1 / RFU, ZEB2 / Fold change vs veh, ZEB2 / RFU, NRIP1 / Fold change vs veh, NRIP1 / RFU, PTTG1IP / Fold change vs veh, PTTG1IP / RFU, CAPN2 / Fold change vs veh, CAPN2 / RFU, MED14 / Fold change vs veh, MED14 / RFU, SNORA58 / Fold change vs veh, SNORA58 / RFU, C1orf63 / Fold change vs veh, C1orf63 / RFU, LRRFIP1 / Fold change vs veh, LRRFIP1 / RFU, NDUFAF7 / Fold change vs veh, NDUFAF7 / RFU, SLC12A2 / Fold change vs veh, SLC12A2 / RFU, IBTK / Fold change vs veh, IBTK / RFU, ESF1 / Fold change vs veh, ESF1 / Fold change vs veh, TMEM50B / RFU, TAOK1 / Fold change vs veh, TAOK1 / RFU, ACBD3 / Fold change vs veh, ACBD3 / RFU, TMA16 / Fold change vs veh, TMA16 / RFU, RWDD3 / Fold change vs veh, RWDD3 / RFU, BCAT1 / Fold change vs veh, BCAT1 / RFU, EDEM3 / Fold change vs veh, EDEM3 / RFU, TMEM33 / Fold change vs veh, TMEM33 / RFU, WDR75 / Fold change vs veh, WDR75 / RFU, AHCTF1 / Fold change vs veh, AHCTF1 / RFU, TFRC / Fold change vs veh, TFRC / RFU, ZDHHC17 / Fold change vs veh, ZDHHC17 / RFU, NOM1 / Fold change vs veh, NOM1 / RFU, ARL8B / Fold change vs veh, ARL8B / RFU, ZBTB11 / Fold change vs veh, ZBTB11 / RFU, TAMM41 / Fold change vs veh, TAMM41 / RFU, KIAA1704 /// LOC100996395 / Fold change vs veh, KIAA1704 /// LOC100996395 / RFU, ING1 / Fold change vs veh, ING1 / RFU, TRMT61B / Fold change vs veh, TRMT61B / RFU, FUBP3 / Fold change vs veh, FUBP3 / RFU, TP53 / Fold change vs veh, TP53 / RFU, TNKS2 / Fold change vs veh, TNKS2 / RFU, ZFP14 / Fold change vs veh, ZFP14 / RFU, ACTR2 / Fold change vs veh, ACTR2 / RFU, PPP3R1 / Fold change vs veh, PPP3R1 / RFU, PIK3R1 / Fold change vs veh, PIK3R1 / RFU, HNRNPA1 / Fold change vs veh, HNRNPA1 / RFU, RNF170 / Fold change vs veh, RNF170 / RFU, ZNF28 / Fold change vs veh, ZNF28 / RFU, RNGTT / Fold change vs veh, RNGTT / RFU, OGT / Fold change vs veh, OGT / RFU, BRD1 / Fold change vs veh, BRD1 / RFU, MARS / Fold change vs veh, MARS / RFU, ZNF655 / Fold change vs veh, ZNF655 / RFU, FAHD1 / Fold change vs veh, FAHD1 / RFU, BDP1 / Fold change vs veh, BDP1 / RFU, LRRCC1 / Fold change vs veh, LRRCC1 / RFU, ARID1A / Fold change vs veh, ARID1A / RFU, ZNF146 / Fold change vs veh, ZNF146 / RFU, ZNF330 / Fold change vs veh, ZNF330 / RFU, GPN3 / Fold change vs veh, GPN3 / RFU, C9orf123 / Fold change vs veh, C9orf123 / RFU, N4BP2L2 / Fold change vs veh, N4BP2L2 / RFU, ARFIP1 / Fold change vs veh, ARFIP1 / RFU, FAM179B / Fold change vs veh, FAM179B / RFU, BCL10 / Fold change vs veh, BCL10 / RFU, UHRF1BP1L / Fold change vs veh, UHRF1BP1L / RFU, BET1 / Fold change vs veh, BET1 / RFU, CNOT2 / Fold change vs veh, CNOT2 / RFU, ZNF268 / Fold change vs veh, ZNF268 / Fold change vs veh, ZNF507 / RFU, DGCR2 / Fold change vs veh, DGCR2 / RFU, WDSUB1 / Fold change vs veh, WDSUB1 / Fold change vs veh, HSP90B1 /// MIR3652 / RFU, ADSS / Fold change vs veh, ADSS / RFU, GK / Fold change vs veh, GK / RFU, ZNF148 / Fold change vs veh, ZNF148 / RFU, TAF9 / Fold change vs veh, TAF9 / RFU, SLC1A5 / Fold change vs veh, SLC1A5 / RFU, SLMO2 / Fold change vs veh, SLMO2 / RFU, ABCC4 / Fold change vs veh, ABCC4 / RFU, LOC101060439 /// RAP1B / Fold change vs veh, LOC101060439 /// RAP1B / RFU, RFX7 / Fold change vs veh, RFX7 / RFU, GTPBP10 / Fold change vs veh, GTPBP10 / RFU, CNEP1R1 / Fold change vs veh, CNEP1R1 / RFU, BIVM-ERCC5 /// ERCC5 / Fold change vs veh, BIVM-ERCC5 /// ERCC5 / RFU, ILF3 / Fold change vs veh, ILF3 / RFU 11762660_at / Fold change /veh 11762660_at / RFU VCAN (11757783_s_at) / Fold change /veh VCAN (11757783_s_at) / RFU DDX43 (11728927_at) / Fold change /veh DDX43 (11728927_at) / RFU KRT8 (11758188_x_at) / Fold change /veh KRT8 (11758188_x_at) / RFU NKD1 (11759106_at) / Fold change /veh NKD1 (11759106_at) / RFU SRD5A1 (11742802_a_at) / Fold change /veh SRD5A1 (11742802_a_at) / RFU TPSAB1 /// TPSB2 (11721975_s_at) / Fold change /veh TPSAB1 /// TPSB2 (11721975_s_at) / RFU GSTM3 (11746129_a_at) / Fold change /veh GSTM3 (11746129_a_at) / RFU IL23R (11737362_x_at) / Fold change /veh IL23R (11737362_x_at) / RFU TMEM51 (11727254_a_at) / Fold change /veh TMEM51 (11727254_a_at) / RFU PIWIL2 (11732686_x_at) / Fold change /veh PIWIL2 (11732686_x_at) / RFU ORM1 (11744905_x_at) / Fold change /veh ORM1 (11744905_x_at) / RFU CCDC152 (11743942_at) / Fold change /veh CCDC152 (11743942_at) / RFU ECM1 (11717891_a_at) / Fold change /veh ECM1 (11717891_a_at) / RFU IL23R (11748794_a_at) / Fold change /veh IL23R (11748794_a_at) / RFU TNFAIP8L3 (11732012_x_at) / Fold change /veh TNFAIP8L3 (11732012_x_at) / RFU MBOAT4 (11741988_at) / Fold change /veh MBOAT4 (11741988_at) / RFU 11764193_at / Fold change /veh 11764193_at / RFU TMEM53 (11763286_at) / Fold change /veh TMEM53 (11763286_at) / RFU MAGEB2 (11727129_at) / Fold change /veh MAGEB2 (11727129_at) / RFU TMEM200A (11744735_a_at) / Fold change /veh TMEM200A (11744735_a_at) / RFU CCDC152 (11751479_a_at) / Fold change /veh CCDC152 (11751479_a_at) / RFU FAM211A (11726209_a_at) / Fold change /veh FAM211A (11726209_a_at) / RFU RGS16 (11746705_a_at) / Fold change /veh RGS16 (11746705_a_at) / RFU VCAN (11755009_s_at) / Fold change /veh VCAN (11755009_s_at) / RFU RHOB (11743442_s_at) / Fold change /veh RHOB (11743442_s_at) / RFU RGS16 (11720943_a_at) / Fold change /veh RGS16 (11720943_a_at) / RFU RGS16 (11720944_at) / Fold change /veh RGS16 (11720944_at) / RFU, VPS4B / Fold change vs veh, VPS4B / RFU, CREB1 / Fold change vs veh, CREB1 / RFU, DNAJC13 / Fold change vs veh, DNAJC13 / RFU, GNAQ / Fold change vs veh, GNAQ / RFU, CDK5R1 / Fold change vs veh, CDK5R1 / RFU, ZRANB3 / Fold change vs veh, ZRANB3 / RFU, CUL4A / Fold change vs veh, CUL4A / RFU, CCNY / Fold change vs veh, CCNY / RFU, UFL1 / Fold change vs veh, UFL1 / RFU, COG3 / Fold change vs veh, COG3 / RFU, DIAPH2 / Fold change vs veh, DIAPH2 / RFU, SKA2 / Fold change vs veh, SKA2 / RFU, AFF3 / Fold change vs veh, AFF3 / RFU, LMF1 / Fold change vs veh, LMF1 / RFU, IPO11 / Fold change vs veh, IPO11 / RFU, DFFB / Fold change vs veh, DFFB / RFU, FOXP1 / Fold change vs veh, FOXP1 / RFU, CARD8 / Fold change vs veh, CARD8 / RFU, STRN3 / Fold change vs veh, STRN3 / RFU, ADK / Fold change vs veh, ADK / RFU, RASSF2 / Fold change vs veh, RASSF2 / RFU, WIPF1 / Fold change vs veh, WIPF1 / RFU, LARP1B / Fold change vs veh, LARP1B / RFU, RASA1 / Fold change vs veh, RASA1 / RFU, RB1 / Fold change vs veh, RB1 / RFU, PPFIA1 / Fold change vs veh, PPFIA1 / RFU, MAT2A / Fold change vs veh, MAT2A / RFU, CCT5 / Fold change vs veh, CCT5 / RFU, WDR92 / Fold change vs veh, WDR92 / RFU, CUX1 / Fold change vs veh, CUX1 / RFU, TTC7A / Fold change vs veh, TTC7A / RFU, TMEM135 / Fold change vs veh, TMEM135 / RFU, DEPTOR / Fold change vs veh, DEPTOR / RFU, CPM / Fold change vs veh, CPM / RFU, DNAJB6 / Fold change vs veh, DNAJB6 / RFU, CACNA2D3 / Fold change vs veh, CACNA2D3 / RFU, DTX4 / Fold change vs veh, DTX4 / RFU, TFCP2 / Fold change vs veh, TFCP2 / RFU, GMCL1 /// GMCL1P1 / Fold change vs veh, GMCL1 /// GMCL1P1 / RFU, AEBP2 / Fold change vs veh, AEBP2 / RFU, SNHG1 /// SNORD22 /// SNORD25 /// SNORD26 /// SNORD27 /// SNORD28 /// SNORD29 /// SNORD31 / Fold change vs veh, SNHG1 /// SNORD22 /// SNORD25 /// SNORD26 /// SNORD27 /// SNORD28 /// SNORD29 /// SNORD31 / Fold change (Aza/veh), C12orf56 (ProbeSet 11735607_a_at) / Fold change (ACY-1035/veh), C12orf56 (ProbeSet 11735607_a_at) / Fold change (Aza/veh), FGFR1OP (ProbeSet 11751329_s_at) / Fold change (ACY-1035/veh), FGFR1OP (ProbeSet 11751329_s_at) / Fold change (Aza/veh), VPS36 (ProbeSet 11739960_a_at) / Fold change (ACY-1035/veh), VPS36 (ProbeSet 11739960_a_at) / RFU SYPL1 (11715823_x_at) / Fold change /veh SYPL1 (11715823_x_at) / RFU IGFBP7 (11715501_s_at) / Fold change /veh IGFBP7 (11715501_s_at) / RFU REEP3 (11722064_at) / Fold change /veh REEP3 (11722064_at) / RFU IGLL1 (11728026_x_at) / Fold change /veh IGLL1 (11728026_x_at): dose or concentration left out as unconfirmed
Conditions: ProbeSet 11745428_a_at; LIST D

Nc1ncn([C@@H]2O[C@H](CO)[C@@H](O)[C@H]2O)c(=O)n1 [azacitidine]
Fold change vs veh, DFFB: 0.78
